Measurements published in paper PMC3352823, “In Vitro and In Vivo Activity of a Palladacycle Complex on Leishmania (Leishmania) amazonensis” (PLoS Neglected Tropical Diseases, 2012).

Tested on: T1, L. (L.) amazonensis cathepsin B
T1 construct: gene CPC; native enzyme in amastigote lysate (hamster lesion amastigotes), not purified; activity defined by cathepsin B substrate and CA074
Assay type: biochemical, Leishmania amazonensis
Settings: substrate Abz-Gly-Ile-Val-Arg-Ala-Lys(Dnp)-OH 10 µM; pH 5.0, 37 °C, 2 mM DTT

IC50: 700 ± 80 nM
SMILES: CCCNC(=O)[C@H]1O[C@@H]1C(=O)N[C@H](C(=O)N1CCC[C@H]1C(=O)O)[C@@H](C)CC [CA074]
